Test results from the supplement of paper PMC10307832.

What was measured:
Test in all cases: relative viability (nuclei count vs DMSO), 5 days (fraction); higher = more cells survive
CAL-12T = tested on: CAL-12T
In short: (§1)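 One day after seeding in 1536-well plates, lung cancer cell lines were dosed by pin tool. Dosing was either single-drug or a fixed anchor-drug dose plus five library-drug doses (not always all listed) in √10 steps. After 5 days, nuclei were stained in one fix-and-stain step and counted on 4× images, and relative viability is the nuclei count of treated wells over that of vehicle wells, given as the median of duplicate plates.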

COR-L 105 = tested on: COR-L 105
In short: as §1

NCI-H358 = tested on: NCI-H358
In short: as §1

ABC-1 = tested on: ABC-1
In short: as §1

HCC-827 = tested on: HCC-827
In short: as §1

LXF-289 = tested on: LXF-289
In short: as §1

LU99A = tested on: LU99A
In short: as §1

NCI-H2342 = tested on: NCI-H2342
In short: as §1

NCI-H1734 = tested on: NCI-H1734
In short: as §1

NCI-H2347 = tested on: NCI-H2347
In short: as §1

LOU-NH91 = tested on: LOU-NH91
In short: as §1

NCI-H1793 = tested on: NCI-H1793
In short: as §1

NCI-H2170 = tested on: NCI-H2170
In short: as §1

NCI-H522 = tested on: NCI-H522
In short: as §1

HARA = tested on: HARA
In short: as §1

NCI-H1915 = tested on: NCI-H1915
In short: as §1

EKVX = tested on: EKVX
In short: as §1

201T = tested on: 201T
In short: as §1

UMC-11 = tested on: UMC-11
In short: as §1

NCI-H1437 = tested on: NCI-H1437
In short: as §1

Nc1cccc2c1CN(C1CCC(=O)NC1=O)C2=O (stereo unspecified) [Lenalidomide] + CCNC(=O)c1noc(-c2cc(C(C)C)c(O)cc2O)c1-c1ccc(CN2CCOCC2)cc1 [Luminespib] (partner 0.01 µM)
relative viability (CAL-12T; first compound 0.253 µM): 0.341
relative viability (CAL-12T; first compound 0.8 µM): 0.245
relative viability (CAL-12T; first compound 2.53 µM): 0.259
relative viability (CAL-12T; first compound 8 µM): 0.479
relative viability (COR-L 105; first compound 0.253 µM): 0.891
relative viability (COR-L 105; first compound 0.8 µM): 0.574
relative viability (COR-L 105; first compound 2.53 µM): 0.836
relative viability (COR-L 105; first compound 8 µM): 0.994
relative viability (NCI-H358; first compound 0.253 µM): 0.419
relative viability (NCI-H358; first compound 0.8 µM): 0.377
relative viability (NCI-H358; first compound 2.53 µM): 0.437
relative viability (NCI-H358; first compound 8 µM): 0.576
relative viability (ABC-1; first compound 0.253 µM): 0.908
relative viability (ABC-1; first compound 2.53 µM): 0.684
relative viability (ABC-1; first compound 8 µM): 0.517
relative viability (HCC-827; first compound 0.253 µM): 0.661
relative viability (HCC-827; first compound 0.8 µM): 0.803
relative viability (HCC-827; first compound 2.53 µM): 0.838
relative viability (HCC-827; first compound 8 µM): 0.59
relative viability (LXF-289; first compound 0.253 µM): 0.799
relative viability (LXF-289; first compound 0.8 µM): 0.686
relative viability (LXF-289; first compound 2.53 µM): 0.768
relative viability (LXF-289; first compound 8 µM): 0.725
relative viability (LU99A; first compound 0.253 µM): 0.236
relative viability (LU99A; first compound 0.8 µM): 0.249
relative viability (LU99A; first compound 2.53 µM): 0.258
relative viability (LU99A; first compound 8 µM): 0.258
relative viability (NCI-H2342; first compound 0.253 µM): 0.706
relative viability (NCI-H2342; first compound 0.8 µM): 0.744
relative viability (NCI-H2342; first compound 2.53 µM): 0.806
relative viability (NCI-H2342; first compound 8 µM): 0.56
relative viability (NCI-H1734; first compound 0.253 µM): 0.157
relative viability (NCI-H1734; first compound 0.8 µM): 0.202
relative viability (NCI-H1734; first compound 2.53 µM): 0.206
relative viability (NCI-H1734; first compound 8 µM): 0.196
relative viability (NCI-H2347; first compound 0.253 µM): 0.507
relative viability (NCI-H2347; first compound 0.8 µM): 0.627
relative viability (NCI-H2347; first compound 2.53 µM): 0.454
relative viability (NCI-H2347; first compound 8 µM): 0.249
relative viability (LOU-NH91; first compound 0.253 µM): 0.343
relative viability (LOU-NH91; first compound 0.8 µM): 0.343
relative viability (LOU-NH91; first compound 2.53 µM): 0.313
relative viability (LOU-NH91; first compound 8 µM): 0.283
relative viability (NCI-H1793; first compound 0.253 µM): 0.173
relative viability (NCI-H1793; first compound 2.53 µM): 0.167
relative viability (NCI-H1793; first compound 8 µM): 0.165
relative viability (NCI-H2170; first compound 0.253 µM): 0.683
relative viability (NCI-H2170; first compound 0.8 µM): 0.799
relative viability (NCI-H2170; first compound 2.53 µM): 0.588
relative viability (NCI-H2170; first compound 8 µM): 0.426
relative viability (NCI-H522; first compound 0.253 µM): 1.32
relative viability (NCI-H522; first compound 0.8 µM): 1.79
relative viability (NCI-H522; first compound 2.53 µM): 1.28
relative viability (NCI-H522; first compound 8 µM): 1.17
relative viability (HARA; first compound 0.253 µM): 0.679
relative viability (HARA; first compound 2.53 µM): 0.614
relative viability (HARA; first compound 8 µM): 1.03
relative viability (NCI-H1915; first compound 0.253 µM): 0.818
relative viability (NCI-H1915; first compound 0.8 µM): 0.845
relative viability (NCI-H1915; first compound 2.53 µM): 0.802
relative viability (NCI-H1915; first compound 8 µM): 0.915
relative viability (EKVX; first compound 0.253 µM): 0.807
relative viability (EKVX; first compound 0.8 µM): 0.84
relative viability (EKVX; first compound 2.53 µM): 0.955
relative viability (EKVX; first compound 8 µM): 0.801
relative viability (201T; first compound 0.253 µM): 1.05
relative viability (201T; first compound 2.53 µM): 1.03
relative viability (201T; first compound 8 µM): 1.09
relative viability (UMC-11; first compound 0.253 µM): 1.02
relative viability (UMC-11; first compound 0.8 µM): 1.03
relative viability (UMC-11; first compound 2.53 µM): 1.04
relative viability (UMC-11; first compound 8 µM): 0.953
relative viability (NCI-H1437; first compound 0.253 µM): 1.19
relative viability (NCI-H1437; first compound 0.8 µM): 1.08
relative viability (NCI-H1437; first compound 2.53 µM): 1.11
relative viability (NCI-H1437; first compound 8 µM): 1.23
